Reference: patent US8158792B2, “Spiropiperidines for use as tryptase inhibitors” (Janssen Pharmaceutica N.V., priority 2007, dated 2012)
pIC50: −log10 of the molar value.

biological target: human lung tryptase; assay: β-Tryptase In-Vitro Enzyme Assay; type: biochemical; conditions: human lung tryptase 1 nM, substrate H-D-HHT-Ala-Arg-pNa 500 μM, pH 7.4, room temperature
Protocol: The β-tryptase assay was conducted with human lung tryptase (Cortex Biochem #CP3033) in an aqueous buffer (10 mM Tris, 10 mM Hepes, 150 mM NaCl, 0.1% PEG 8000, pH 7.4) using the chromogenic substrate H-D-HHT-Ala-Arg-pNa. […] Percent inhibition was calculated by comparing the initial reaction velocity of samples without inhibitor to those with inhibitor. The initial reaction velocities were analyzed using Microsoft Excel.

| pIC50 | SMILES |
| --- | --- |
| 6.70 | CC(C)(C)c1ccc(C(=O)N2CCC3(CC2)COc2ccc(CN)cc23)s1 [Cpd 266, 1-(5-tert-butyl-thien-2-yl)carbonyl-5′-aminomethyl-spiro[piperidine-4,3′-(2H)-benzo[b]furan]] |
| 6.62 | NCc1ccc2c(c1)C1(CCN(C(=O)c3ccc(COc4ccccc4Br)o3)CC1)CO2 [Cpd 213, 1-[5-(2-bromo-phenoxymethyl)-furan-2-yl]carbonyl-5′-aminomethyl-spiro[piperidine-4,3′-(2H)-benzo[b]furan]] |
| 6.54 | NCc1ccc2c(c1)C1(CCN(C(=O)/C=C/c3ccc(Cl)c(Cl)c3)CC1)CO2 [Cpd 116, (E)-1-(3,4-dichloro-phenylethenyl)carbonyl-5′-aminomethyl-spiro[piperidine-4,3′-(2H)-benzo[b]furan]] |
| 6.80 | NCc1ccc2c(c1)C1(CCN(C(=O)C(c3ccccc3)c3ccccc3)CC1)CO2 [Cpd 290, 1-(1-oxo-2,2-diphenyl-ethyl)-5′-aminomethyl-spiro[piperidine-4,3′-(2H)-benzo[b]furan]] |
| 6.48 | COc1ccc2c(Cl)c(C(=O)N3CCC4(CC3)COc3ccc(CN)cc34)sc2c1 [Cpd 209, 1-(3-chloro-6-methoxy-benzo[b]thien-2-yl)carbonyl-5′-aminomethyl-spiro[piperidine-4,3′-(2H)-benzo[b]furan]] |
| 6.96 | COC(=O)N1CC2(CCN(C(=O)c3ccc(C#Cc4ccccc4)o3)CC2)c2cc(CN)ccc21 [Cpd 323, 1-(5-phenylethynyl-furan-2-yl)carbonyl-1′-methoxycarbonyl-5′-aminomethyl-spiro[piperidine-4,3′-(2H)-indole]] |
| 6.40 | COCCOc1cccc(/C=C/C(=O)N2CCC3(CC2)COc2ccc(CN)cc23)c1 [Cpd 291, (E)-1-[3-(2-methoxy-ethoxy)-phenylethenyl]carbonyl-5′-aminomethyl-spiro[piperidine-4,3′-(2H)-benzo[b]furan]] |
| 7.39 | NCc1ccc2c(c1)C1(CCN(C(=O)c3ccc(C#Cc4ccccc4)o3)CC1)CN2S(=O)(=O)c1cccc(C(=O)O)c1 [Cpd 331, 1-(5-phenylethynyl-furan-2-yl)carbonyl-1′-(3-carboxy-phenyl)sulfonyl-5′-aminomethyl-spiro[piperidine-4,3′-(2H)-indole]] |
| 6.59 | NCc1ccc2c(c1)C1(CCN(C(=O)c3ccc(COc4ccc(F)cc4)o3)CC1)CO2 [Cpd 154, 1-[5-(4-fluoro-phenoxymethyl)-furan-2-yl]carbonyl-5′-aminomethyl-spiro[piperidine-4,3′-(2H)-benzo[b]furan]] |
| 6.82 | NCc1ccc2c(c1)C1(CCN(C(=O)c3ccc4ccccc4c3)CC1)CO2 [Cpd 70, 1-naphthalen-2-ylcarbonyl-5′-aminomethyl-spiro[piperidine-4,3′-(2H)-benzo[b]furan]] |
| 5.28 | NCc1ccc2c(c1)C1(CCN(C(=O)c3ccc(Cl)c(Cl)c3)CC1)CS2(=O)=O [Cpd 352, 1-(3,4-dichlorophenyl)carbonyl-5′-aminomethyl-spiro[piperidine-4,3′-(1,1-dioxo-(2H)-benzo[b]thiophene)]] |
| 5.82 | COc1ccc(/C=C/C(=O)N2CCC3(CC2)COc2ccc(CN)cc23)cc1 [Cpd 185, (E)-1-(4-methoxy-phenylethenyl)carbonyl-5′-aminomethyl-spiro[piperidine-4,3′-(2H)-benzo[b]furan]] |
| 7.62 | NCc1ccc2c(c1)C1(CCN(C(=O)c3ccc(C#Cc4ccccc4)o3)CC1)CN2S(=O)(=O)c1csc(C(=O)O)c1 [Cpd 347, 1-(5-phenylethynyl-furan-2-yl)carbonyl-1′-(5-carboxy-thien-3-yl)sulfonyl-5′-aminomethyl-spiro[piperidine-4,3′-(2H)-indole]] |
| 5.33 | NCc1ccc2c(c1)C1(CCN(C(=O)c3ccc(S(N)(=O)=O)cc3)CC1)CO2 [Cpd 11, 1-(4-aminosulfonyl-phenyl)carbonyl-5′-aminomethyl-spiro[piperidine-4,3′-(2H)-benzo[b]furan]] |
| 6.74 | Cc1nn(-c2ccc(C(=O)N3CCC4(CC3)COc3ccc(CN)cc34)o2)c(C)c1Br [Cpd 150, 1-[5-(3,5-dimethyl-4-bromo-pyrazol-1-yl)-furan-2-yl]carbonyl-5′-aminomethyl-spiro[piperidine-4,3′-(2H)-benzo[b]furan]] |
| 7.18 | NCc1ccc2c(c1)C1(CCN(C(=O)c3ccc(CSCc4ccccc4)o3)CC1)CO2 [Cpd 147, 1-[5-(benzylthiomethyl)-furan-2-yl]carbonyl-5′-aminomethyl-spiro[piperidine-4,3′-(2H)-benzo[b]furan]] |
| 6.08 | Cc1cccc2c(C(=O)N3CCC4(CC3)COc3ccc(CN)cc34)c[nH]c12 [Cpd 249, 1-(7-methyl-indol-3-yl)carbonyl-5′-aminomethyl-spiro[piperidine-4,3′-(2H)-benzo[b]furan]] |
| 6.57 | Cn1cc(C(=O)N2CCC3(CC2)COc2ccc(CN)cc23)c2ccccc21 [Cpd 237, 1-(1-methyl-indol-3-yl)carbonyl-5′-aminomethyl-spiro[piperidine-4,3′-(2H)-benzo[b]furan]] |

| pIC50 | SMILES |
| --- | --- |
| 7.60 | NCc1ccc2c(c1)C1(CCN(C(=O)c3ccc(-c4ccc(Cl)cc4Cl)o3)CC1)CO2 [Cpd 136, 1-[5-(2,4-dichloro-phenyl)-furan-2-yl]carbonyl-5′-aminomethyl-spiro[piperidine-4,3′-(2H)-benzo[b]furan]] |
| 5.51 | NCc1ccc2c(c1)C1(CCN(C(=O)/C=C\c3c[nH]cn3)CC1)CO2 [Cpd 243, (Z)-1-(imidazol-4-ylethenyl)carbonyl-5′-aminomethyl-spiro[piperidine-4,3′-(2H)-benzo[b]furan]] |
| 6.17 | NCc1ccc2c(c1)C1(CCN(C(=O)c3cc4ccccc4oc3=O)CC1)CO2 [Cpd 196, 1-(2-oxo-(2H)-chromen-3-yl)carbonyl-5′-aminomethyl-spiro[piperidine-4,3′-(2H)-benzo[b]furan]] |
| 6.14 | NCc1ccc2c(c1)C1(CCN(C(=O)C3CCCCC3)CC1)CO2 [Cpd 37, 1-cyclohexylcarbonyl-5′-aminomethyl-spiro[piperidine-4,3′-(2H)-benzo[b]furan]] |
| 6.19 | NCc1ccc2c(c1)C1(CCN(C(=O)c3cncc(-c4ccccc4)c3)CC1)CO2 [Cpd 142, 1-(5-phenyl-pyridin-3-yl)carbonyl-5′-aminomethyl-spiro[piperidine-4,3′-(2H)-benzo[b]furan]] |
| 7.77 | Cc1ccc(C)c(OCc2ccc(C(=O)N3CCC4(CC3)COc3ccc(CN)cc34)o2)c1 [Cpd 174, 1-[5-(2,5-dimethyl-phenoxymethyl)-furan-2-yl]carbonyl-5′-aminomethyl-spiro[piperidine-4,3′-(2H)-benzo[b]furan]] |
| 7.19 | CS(=O)(=O)CC(=O)N1CC2(CCN(C(=O)c3ccc(C#Cc4ccccc4)o3)CC2)c2cc(CN)ccc21 [Cpd 333, 1-(5-phenylethynyl-furan-2-yl)carbonyl-1′-(methylsulfonylmethyl)carbonyl-5′-aminomethyl-spiro[piperidine-4,3′-(2H)-indole]] |
| 5.89 | NCCc1ccc2c(c1)C1(CCN(C(=O)c3ccc(C#Cc4ccccc4)o3)CC1)CO2 [Cpd 314, 1-(5-phenylethynyl-furan-2-yl)carbonyl-5′-aminoethyl-spiro[piperidine-4,3′-(2H)-benzo[b]furan]] |
| 5.39 | NCc1ccc2c(c1)C1(CCN(C(=O)c3cc4cc(C(F)(F)F)ccc4s3)CC1)CO2 [Cpd 200, 1-(5-trifluoromethyl-benzo[b]thien-2-yl)carbonyl-5′-aminomethyl-spiro[piperidine-4,3′-(2H)-benzo[b]furan]] |
| 6.72 | CN(C)c1cccc(C(=O)N2CCC3(CC2)COc2ccc(CN)cc23)c1 [Cpd 56, 1-(3-dimethylamino-phenyl)carbonyl-5′-aminomethyl-spiro[piperidine-4,3′-(2H)-benzo[b]furan]] |
| 7.82 | CC(=O)N1CC2(CCN(C(=O)c3ccc(C#Cc4ccccc4)o3)CC2)c2cc(CN)ccc21 [Cpd 339, 1-(5-phenylethynyl-furan-2-yl)carbonyl-1′-methylcarbonyl-5′-aminomethyl-spiro[piperidine-4,3′-(2H)-indole]] |
| 7.35 | COc1ccc(-c2c(C(=O)N3CCC4(CC3)COc3ccc(CN)cc34)sc(SC)c2C#N)cc1 [Cpd 201, 1-[3-(4-methoxy-phenyl)-4-cyano-5-methylthio-thien-2-yl]carbonyl-5′-aminomethyl-spiro[piperidine-4,3′-(2H)-benzo[b]furan]] |
| 7.22 | N=C(NN)c1ccc2c(c1)C1(CCN(C(=O)c3ccc(C#Cc4ccccc4)o3)CC1)CO2 [Cpd 307, 1-(5-phenylethynyl-furan-2-yl)carbonyl-5′-[hydrazino(imino)methyl]-spiro[piperidine-4,3′-(2H)-benzo[b]furan]] |
| 5.77 | NCc1ccc2c(c1)C1(CCN(C(=O)Cc3cccc(Br)c3)CC1)CO2 [Cpd 87, 1-(3-bromo-benzyl)carbonyl-5′-aminomethyl-spiro[piperidine-4,3′-(2H)-benzo[b]furan]] |
| 6.29 | NCc1ccc2c(c1)C1(CCN(C(=O)c3cccc(Sc4ncc(Cl)cn4)c3)CC1)CO2 [Cpd 21, 1-[3-(5-chloro-pyrimidin-2-yl)thiophenyl]carbonyl-5′-aminomethyl-spiro[piperidine-4,3′-(2H)-benzo[b]furan]] |
| 6.68 | COc1cccc(/C=C/C(=O)N2CCC3(CC2)COc2ccc(CN)cc23)c1 [Cpd 184, (E)-1-(3-methoxy-phenylethenyl)carbonyl-5′-aminomethyl-spiro[piperidine-4,3′-(2H)-benzo[b]furan]] |
| 6.68 | NCc1ccc2c(c1)C1(CCN(C(=O)c3cc4ccccc4o3)CC1)CO2 [Cpd 160, 1-benzo[b]furan-2-ylcarbonyl-5′-aminomethyl-spiro[piperidine-4,3′-(2H)-benzo[b]furan]] |
| 5.64 | NCc1ccc2c(c1)C1(CCN(C(=O)Cc3cccc(Cl)c3)CC1)CO2 [Cpd 81, 1-(3-chloro-benzyl)carbonyl-5′-aminomethyl-spiro[piperidine-4,3′-(2H)-benzo[b]furan]] |
